Common to all, as to format: functional
The subject of assay [1] is Staphylococcus aureus. The experiment in a line: Antibacterial activity against Staphylococcus aureus DSM 1104 assessed as diamater of growth inhibition zone after 24 hr by agar cup diffusion method.
Assay [2] deals with Candida albicans. The experiment in a line: Antifungal activity against Candida albicans DSM 70014 assessed as growth inhibition after 48 hr. The note with it: DSM 70014, 48 h.
Assay [3] deals with Bacillus subtilis. In words: Antibacterial activity against Bacillus subtilis ATCC 6633 assessed as growth inhibition after 24 hr. The conditions noted are these: ATCC 6633, 24 h.
In assay [4] the test system is Bacillus subtilis. The experiment in a line: Antibacterial activity against Bacillus subtilis ATCC 6633 assessed as diamater of growth inhibition zone after 24 hr by agar cup diffusion method.
Assay [5] has as its system Escherichia coli. In words: Antibacterial activity against Escherichia coli ATCC 11775 assessed as growth inhibition after 24 hr. The note with it: ATCC 11775, 24 h.
Assay [6] concerns Staphylococcus aureus. The experiment in a line: Antibacterial activity against Staphylococcus aureus DSM 1104 assessed as growth inhibition after 24 hr. The note with it: DSM 1104, 24 h.
Assay [7] has as its system Candida albicans. The experiment in a line: Antifungal activity against Candida albicans DSM 70014 assessed as growth inhibition after 48 hr by two-fold serial dilution method. The conditions noted are these: DSM 70014, 48 h.
Assay [8] relates to Staphylococcus aureus. The experiment in a line: Antibacterial activity against Staphylococcus aureus DSM 1104 assessed as growth inhibition after 24 hr by two fold serial dilution method. The note with it: DSM 1104, 24 h.
The test system of assay [9] is Pseudomonas aeruginosa. In words: Antibacterial activity against Pseudomonas aeruginosa ATCC 10145 assessed as growth inhibition after 24 hr. The note with it: ATCC 10145, 24 h.
Assay [10] relates to Pseudomonas aeruginosa. In words: Antibacterial activity against Pseudomonas aeruginosa ATCC 10145 assessed as growth inhibition after 24 hr by two-fold serial dilution method. The note with it: ATCC 10145, 24 h.
Assay [11] deals with Bacillus subtilis. The experiment in a line: Antibacterial activity against Bacillus subtilis ATCC 6633 assessed as growth inhibition after 24 hr by two fold serial dilution method. The conditions noted are these: ATCC 6633, 24 h.
Assay [12] relates to Candida albicans. The experiment in a line: Antifungal activity against Candida albicans DSM 70014 assessed as diamater of growth inhibition zone after 48 hr by agar cup diffusion method.
The subject of assay [13] is Pseudomonas aeruginosa. In words: Antibacterial activity against Pseudomonas aeruginosa ATCC 10145 assessed as diamater of growth inhibition zone after 24 hr by agar cup diffusion method.
In assay [14] the test system is Escherichia coli. In words: Antibacterial activity against Escherichia coli ATCC 11775 assessed as growth inhibition after 24 hr by two-fold serial dilution method. The conditions noted are these: ATCC 11775, 24 h.
For assay [15], the system named is Escherichia coli. The experiment in a line: Antibacterial activity against Escherichia coli ATCC 11775 assessed as diamater of growth inhibition zone after 24 hr by agar cup diffusion method.
Assay [16] concerns Pseudomonas aeruginosa. In words: Ratio of Ampicillin MIC to compound MIC for Pseudomonas aeruginosa ATCC 10145.

Each structure is given as a SMILES string. Values after ≈ are worked out from the molar mass of the structure shown.

One may read the MFC as the smallest concentration meeting the test's criterion for killing the fungus. What is called MBC is the smallest concentration meeting the test's criterion for killing. A word on the MIC: it is the least concentration at which growth counts as inhibited.

With `COc1ccc(/C=N/N=c2\scc(-c3cc(O)ccc3O)n2-c2ccc(C)cc2)cc1`, the “diameter of the inhibition zone (DIZ)” value came out at 15 mm in the assay with Staphylococcus aureus [1]; 13 mm in the assay with Bacillus subtilis [4]; 15 mm in the assay on Candida albicans [12]; 16 mm in the assay on Pseudomonas aeruginosa [13]; 15 mm in the assay with Escherichia coli [15]. Also, the minimal fungicidal concentration (MFC) with Candida albicans [2] turned out to be 100 µg/mL (≈ 232 µM). Also, the minimum bactericidal concentration (MBC) in the assay on Bacillus subtilis [3] was 50 µg/mL (≈ 116 µM); in the assay with Escherichia coli [5] it was 25 µg/mL (≈ 57.9 µM); with Staphylococcus aureus [6], 50 µg/mL (≈ 116 µM); in the assay with Pseudomonas aeruginosa [9], 50 µg/mL (≈ 116 µM). For the same molecule, the minimum inhibitory concentration (MIC) in the assay on Candida albicans [7] is 100 µg/mL (≈ 232 µM); in the assay on Staphylococcus aureus [8], 50 µg/mL (≈ 116 µM); in the assay with Pseudomonas aeruginosa [10], 50 µg/mL (≈ 116 µM); with Bacillus subtilis [11] it was 50 µg/mL (≈ 116 µM); in the assay on Escherichia coli [14] it was 12.5 µg/mL (≈ 29 µM).

As to `COc1cc(/C=N/N=c2\scc(-c3cc(O)ccc3O)n2-c2ccc(C)cc2)ccc1O`, the “diameter of the inhibition zone (DIZ)” value in the assay on Staphylococcus aureus [1] is 15 mm; in the assay with Bacillus subtilis [4], 15 mm; in the assay on Candida albicans [12], 12 mm; in the assay on Pseudomonas aeruginosa [13], 16 mm; with Escherichia coli [15] it was 14 mm. For the same molecule, in the assay on Candida albicans [2], the MFC turned out to be 50 µg/mL (≈ 112 µM). Moreover, the MBC is 50 µg/mL (≈ 112 µM) in the assay with Bacillus subtilis [3], 100 µg/mL (≈ 223 µM) in the assay with Escherichia coli [5], 50 µg/mL (≈ 112 µM) with Staphylococcus aureus [6] and 100 µg/mL (≈ 223 µM) with Pseudomonas aeruginosa [9]. Also, the minimum inhibitory concentration (MIC) in the assay on Candida albicans [7] was 50 µg/mL (≈ 112 µM); in the assay on Staphylococcus aureus [8], 25 µg/mL (≈ 55.9 µM); with Pseudomonas aeruginosa [10], 50 µg/mL (≈ 112 µM); in the assay with Bacillus subtilis [11], 50 µg/mL (≈ 112 µM); in the assay on Escherichia coli [14], 50 µg/mL (≈ 112 µM).

`COc1ccc(/C=N/N=c2\scc(-c3cc(O)ccc3O)n2-c2ccc(C)cc2)cc1O`: in the assay on Pseudomonas aeruginosa [16], the Ratio was 2. In addition, the “diameter of the inhibition zone (DIZ)” value with Staphylococcus aureus [1] is listed as 16 mm; in the assay with Bacillus subtilis [4], 14 mm; in the assay on Candida albicans [12], 14 mm; in the assay with Pseudomonas aeruginosa [13], 13 mm; in the assay on Escherichia coli [15], 14 mm. In addition, the minimal fungicidal concentration (MFC) with Candida albicans [2] is 25 µg/mL (≈ 55.9 µM). The MBC with Bacillus subtilis [3], with Escherichia coli [5], with Staphylococcus aureus [6] and with Pseudomonas aeruginosa [9] was 50 µg/mL (≈ 112 µM) in each case. Further, the MIC worked out at 12.5 µg/mL (≈ 27.9 µM) with Candida albicans [7]; 25 µg/mL (≈ 55.9 µM) in the assay with Staphylococcus aureus [8]; 25 µg/mL (≈ 55.9 µM) in the assay with Pseudomonas aeruginosa [10]; 25 µg/mL (≈ 55.9 µM) with Bacillus subtilis [11]; 25 µg/mL (≈ 55.9 µM) with Escherichia coli [14].

Consider `COc1ccc(/C=N/N=c2\scc(-c3cc(O)ccc3O)n2-c2ccc(Cl)cc2)cc1`, for which the “diameter of the inhibition zone (DIZ)” value stood at 15 mm in the assay on Staphylococcus aureus [1]; 14 mm in the assay on Bacillus subtilis [4]; 15 mm in the assay on Candida albicans [12]; 12 mm in the assay on Pseudomonas aeruginosa [13]; 14 mm with Escherichia coli [15]. For the same molecule, in the assay with Candida albicans [2], the minimal fungicidal concentration (MFC) is 50 µg/mL (≈ 111 µM). Further, the MBC with Bacillus subtilis [3] was determined as 50 µg/mL (≈ 111 µM); with Escherichia coli [5], 50 µg/mL (≈ 111 µM); in the assay with Staphylococcus aureus [6], 100 µg/mL (≈ 221 µM); with Pseudomonas aeruginosa [9], 50 µg/mL (≈ 111 µM). Besides, the MIC with Candida albicans [7] was 50 µg/mL (≈ 111 µM); with Staphylococcus aureus [8] it was 100 µg/mL (≈ 221 µM); with Pseudomonas aeruginosa [10] it was 50 µg/mL (≈ 111 µM); in the assay with Bacillus subtilis [11], 50 µg/mL (≈ 111 µM); with Escherichia coli [14] it was 25 µg/mL (≈ 55.3 µM).

As for `COc1ccc(OC)c(/C=N/N=c2\scc(-c3cc(O)ccc3O)n2-c2ccc(Cl)cc2)c1`, the “diameter of the inhibition zone (DIZ)” value with Staphylococcus aureus [1] turned out to be 13 mm; in the assay on Bacillus subtilis [4], 15 mm; in the assay with Candida albicans [12], 13 mm; in the assay on Pseudomonas aeruginosa [13], 16 mm; with Escherichia coli [15] it was 18 mm. In addition, the MFC in the assay with Candida albicans [2] came to 100 µg/mL (≈ 207 µM). Further, the minimal bactericidal concentration (MBC) in the assay on Bacillus subtilis [3] stood at 50 µg/mL (≈ 104 µM); with Escherichia coli [5], 50 µg/mL (≈ 104 µM); in the assay on Staphylococcus aureus [6] it was 100 µg/mL (≈ 207 µM); in the assay on Pseudomonas aeruginosa [9] it was 50 µg/mL (≈ 104 µM). The MIC stood at 50 µg/mL (≈ 104 µM) in the assay with Candida albicans [7]; 50 µg/mL (≈ 104 µM) in the assay with Staphylococcus aureus [8]; 50 µg/mL (≈ 104 µM) in the assay with Pseudomonas aeruginosa [10]; 50 µg/mL (≈ 104 µM) with Bacillus subtilis [11]; 25 µg/mL (≈ 51.9 µM) in the assay with Escherichia coli [14].

Consider `COc1cc(/C=N/N=c2\scc(-c3cc(O)ccc3O)n2-c2ccc(Cl)cc2)ccc1O`, for which the “diameter of the inhibition zone (DIZ)” value turned out to be 16 mm in the assay with Staphylococcus aureus [1]; 16 mm in the assay with Bacillus subtilis [4]; 14 mm in the assay with Candida albicans [12]; 14 mm with Pseudomonas aeruginosa [13]; 15 mm in the assay on Escherichia coli [15]. Also, the minimal fungicidal concentration (MFC) in the assay on Candida albicans [2] amounted to 100 µg/mL (≈ 214 µM). The MBC amounted to 50 µg/mL (≈ 107 µM) in the assay on Bacillus subtilis [3], 100 µg/mL (≈ 214 µM) with Escherichia coli [5], 50 µg/mL (≈ 107 µM) with Staphylococcus aureus [6] and 100 µg/mL (≈ 214 µM) in the assay on Pseudomonas aeruginosa [9]. Also, the minimum inhibitory concentration (MIC) in the assay on Candida albicans [7] was determined as 100 µg/mL (≈ 214 µM); with Staphylococcus aureus [8] it was 50 µg/mL (≈ 107 µM); with Pseudomonas aeruginosa [10] it was 100 µg/mL (≈ 214 µM); with Bacillus subtilis [11], 50 µg/mL (≈ 107 µM); with Escherichia coli [14], 100 µg/mL (≈ 214 µM).

(Values after ChEMBL document CHEMBL3044795, “Synthesis and biological evaluation of novel benzoquinones as potential antimicrobial agents” (2013).)
